Assay results as given in US20240116985A1, “STAPLED PEPTIDES AND METHODS THEREOF” (priority 2020, published 2024).
Read-outs that look alike come from different tables or passages of the source.

Experiments:
CHI Log D procedure = assay type: physicochemical
[1] = molecular target: T1, full-length beta-Catenin (Uniprot ID P35222) (Homo sapiens, UniProt P35222); test: Fluorescence polarization IC50 (beta-catenin / 5FAM-TCF4 10-53 competition); assay type: binding
T1 construct: 10 nM full-length beta-Catenin (Uniprot ID P35222)
T1 sequence (P35222 1-781): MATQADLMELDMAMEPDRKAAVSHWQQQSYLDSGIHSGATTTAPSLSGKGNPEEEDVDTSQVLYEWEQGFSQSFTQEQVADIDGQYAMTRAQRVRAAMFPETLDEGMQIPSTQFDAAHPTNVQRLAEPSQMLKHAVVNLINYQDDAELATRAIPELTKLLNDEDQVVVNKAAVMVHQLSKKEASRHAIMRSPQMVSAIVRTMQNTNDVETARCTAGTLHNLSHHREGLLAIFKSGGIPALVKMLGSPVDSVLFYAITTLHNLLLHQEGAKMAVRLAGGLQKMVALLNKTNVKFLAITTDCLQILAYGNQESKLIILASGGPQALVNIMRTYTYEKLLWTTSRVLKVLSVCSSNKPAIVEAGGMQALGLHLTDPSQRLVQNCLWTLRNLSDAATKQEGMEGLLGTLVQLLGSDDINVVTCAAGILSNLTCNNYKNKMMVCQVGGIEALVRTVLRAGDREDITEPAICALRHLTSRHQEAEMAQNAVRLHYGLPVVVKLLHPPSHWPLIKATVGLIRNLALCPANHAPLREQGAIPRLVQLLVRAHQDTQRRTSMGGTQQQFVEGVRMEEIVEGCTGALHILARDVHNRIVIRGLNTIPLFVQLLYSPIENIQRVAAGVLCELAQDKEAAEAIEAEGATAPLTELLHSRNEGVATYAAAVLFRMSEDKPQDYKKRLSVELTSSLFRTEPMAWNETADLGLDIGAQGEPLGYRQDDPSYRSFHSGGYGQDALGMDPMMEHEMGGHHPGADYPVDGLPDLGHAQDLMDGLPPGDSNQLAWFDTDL

[2] = molecular target: T2, beta-catenin/TCF4 engagement (Homo sapiens, UniProt P35222); test: Nano-BRET target engagement assay (B-cat-Halo & TCF4-Luc in HEK293 cells); assay type: cell-based; details: for inhibition at 10 µM: HEK293, @ 10 uM, read-out: NanoBRET % inh @ 10 uM
T2 construct: expressed in transfected cells; host or cells: HEK293
T2 sequence (P35222 1-781): T1 sequence (P35222 1-781)

[3] = fluorescence polarization, read-out: beta-Catenin FP IC50
[4] = Abs IC50, read-out: NanoBRET Abs IC50
[5] = fluorescence polarization, beta-catenin, read-out: FP EC50

Row | SMILES | CHI Log D (CHI Log D procedure; pH 7.4) | IC50 ([1]; read-out: beta-Catenin FP IC50) [µM] | IC50 [1, 5] [µM] | further results
1 | CC[C@H](C)[C@@H]1NC(=O)[C@H](CC(=O)O)NC(=O)[C@]2(CC=CCCCC3(CCCC=CCCCCCC[C@@](C)(C(=O)N[C@@H](Cc4ccccc4)C(=O)N[C@@H](Cc4csc5ccccc45)C(=O)N[C@@H](Cc4c[nH]cn4)C(N)=O)NC(=O)[C@H](CC(N)=O)NC(=O)[C@H](Cc4ccccc4)NC(=O)[C@H](C)NC(=O)[C@H](C)NC(=O)[C@H](CC(=O)O)NC(=O)[C@H](CC(=O)O)NC3=O)NC1=O)CCCN2C(C)=O (stereo partly drawn) [I-470, Ac-PL3-Asp-Ile-B5-Asp-Asp-Ala-Ala-Phe-Asn-S8-Phe-BztA-His-NH2] | 2.394 | – | – | IC50 [1, 3]: 0.011 µM; IC50 ([1]; read-out: FP EC50): 0.011 µM; inhibition at 10 µM [2]: 14.1%
2 | CC(=O)N1CCC[C@]12CC=CCCCC1(CCCC=CCCCCCC[C@@](C)(C(=O)N[C@@H](Cc3ccccc3)C(=O)N[C@@H](Cc3csc4ccccc34)C(=O)N[C@@H](CC(N)=O)C(N)=O)NC(=O)[C@H](CC(N)=O)NC(=O)[C@H](Cc3ccccc3)NC(=O)[C@H](C)NC(=O)[C@H](C)NC(=O)[C@H](CCC(=O)O)NC(=O)[C@H](CC(=O)O)NC1=O)NC(=O)[C@H](CC(C)C)NC(=O)[C@H](CC(=O)O)NC2=O (stereo partly drawn) [I-752, Ac-PL3-Asp-Leu-B5-Asp-Glu-Ala-Ala-Phe-Asn-S8-Phe-BztA-Asn-NH2] | 2.419 | – | – | IC50 [1, 3]: 0.016 µM; IC50 ([1]; read-out: FP EC50): 0.016 µM; IC50 [2, 4]: 9.9 µM; inhibition at 10 µM [2]: 53%; IC50 ([2]; absolute IC50, read-out: NanoBRET Abs IC50): 9.9 µM
3 | CC(=O)N1CCC[C@]12CC=CCCCC1(CCCC=CCCCOC(=O)N3CC[C@@](C(=O)N[C@@H](Cc4ccccc4Cl)C(=O)N[C@@H](Cc4csc5ccccc45)C(=O)N[C@@H](CO)C(N)=O)(C3)NC(=O)[C@H](CC(C)C)NC(=O)[C@H](Cc3ccccc3)NC(=O)[C@H](C)NC(=O)[C@H](C)NC(=O)[C@H](CCC(=O)O)NC(=O)[C@H](CC(=O)O)NC1=O)NC(=O)[C@H](CC(C)(C)C)NC(=O)[C@H](CC(=O)O)NC2=O (stereo partly drawn) [I-1067, Ac-PL3-Asp-Npg-B5-Asp-Glu-Ala-Ala-Phe-Leu-PyrS2-2C1F-BztA-Ser-NH2] | 2.147 | 0.517 | 0.517 | –
4 | CC(=O)N1CCC[C@]12CC=CCCCC1(CCCC=CCCCOC(=O)N3CC[C@@](C(=O)N[C@@H](Cc4ccccc4Cl)C(=O)N[C@@H](Cc4csc5ccccc45)C(=O)N[C@@H](CCC(N)=O)C(N)=O)(C3)NC(=O)[C@H](CC(C)C)NC(=O)[C@H](Cc3ccccc3)NC(=O)[C@H](C)NC(=O)[C@H](C)NC(=O)[C@H](CC(=O)O)NC(=O)[C@H](CC(=O)O)NC1=O)NC(=O)[C@H](CC1CCCCC1)NC(=O)[C@H](CC(=O)O)NC2=O (stereo partly drawn) [I-1076, Ac-PL3-Asp-Cha-B5-Asp-Asp-Ala-Ala-Phe-Leu-PyrS2-2C1F-BztA-Gln-NH2] | 2.049 | 0.448 | 0.448 | –
5 | CC(=O)N1CCC[C@]12CC=CCCCC1(CCCC=CCCCCCC[C@@](C)(C(=O)N[C@@H](Cc3ccccc3Cl)C(=O)N[C@@H](Cc3csc4ccccc34)C(=O)N[C@@H](C(N)=O)[C@H](C)O)NC(=O)[C@H]([C@@H](C)O)NC(=O)[C@H](Cc3ccccc3)NC(=O)[C@H](C)NC(=O)[C@H](C)NC(=O)[C@H](CCC(=O)O)NC(=O)[C@H](CC(=O)O)NC1=O)NC(=O)[C@H](CC(C)(C)C)NC(=O)[C@H](CC(=O)O)NC2=O (stereo partly drawn) [I-1094, Ac-PL3-Asp-Npg-B5-Asp-Glu-Ala-Ala-Phe-Thr-S8-2C1F-BztA-dThr-NH2] | 3.271 | 0.046 | 0.046 | –
6 | CC(=O)N1CCC[C@]12CC=CCCCC1(CCCC=CCCCOC(=O)N3CC[C@@](C(=O)N[C@@H](Cc4ccsc4)C(=O)N[C@@H](Cc4csc5ccccc45)C(=O)N[C@@H](CCC(N)=O)C(N)=O)(C3)NC(=O)[C@H](CC(N)=O)NC(=O)[C@H](Cc3ccccc3)NC(=O)[C@H](C)NC(=O)[C@H](C)NC(=O)[C@H](CC(=O)O)NC(=O)[C@H](CC(=O)O)NC1=O)NC(=O)[C@H](CC(C)(C)C)NC(=O)[C@H](CC(=O)O)N(C)C2=O (stereo partly drawn) [I-1160, Ac-PL3-NMeD-Npg-B5-Asp-Asp-Ala-Ala-Phe-Asn-PyrS2-3Thi-BztA-Gln-NH2] | – | – | – | chromatographic logD (CHI Log D procedure; pH 7.4, CHI Log D): 1.41; IC50 [1, 3]: 0.575 µM

Now from value to compound, other results behind:

Row | CHI Log D (CHI Log D procedure; pH 7.4) | IC50 ([1]; read-out: beta-Catenin FP IC50) [µM] | IC50 [1, 5] [µM] | SMILES | further results
7 | 2.207 | 0.005 | – | CC(=O)N1CCC[C@]12CC=CCCCC1(CCCC=CCCCOC(=O)N3CC[C@@](C(=O)N[C@@H](Cc4ccsc4)C(=O)N[C@@H](Cc4csc5ccccc45)C(=O)N[C@@H](CCC(N)=O)C(N)=O)(C3)NC(=O)[C@H](CC(N)=O)NC(=O)[C@H](Cc3ccccc3)NC(=O)[C@H](C)NC(=O)[C@H](C)NC(=O)[C@H](CN(CC(=O)O)CC(F)(F)F)NC(=O)[C@H](CC(=O)O)NC1=O)NC(=O)[C@H](CC(C)(C)C)NC(=O)[C@H](CC(=O)O)NC2=O (stereo partly drawn) [I-761, Ac-PL3-Asp-Npg-B5-Asp-TfeGA-Ala-Ala-Phe-Asn-PyrS2-3Thi-BztA-Gln-NH2] | logD (CHI Log D procedure; pH 7.4): 2.2; IC50 ([1]; read-out: bCat FP IC50): < 0.005 µM; inhibition at 10 µM [2]: 63.4%; IC50 ([2]; read-out: NanoBRET IC50): 5 µM
8 | 2.043 | 0.009 | – | CC(=O)N1CCC[C@]12CC=CCCCC1(CCCC=CCCCCOC(=O)N3CC[C@@](C(=O)N[C@@H](Cc4ccsc4)C(=O)N[C@@H](Cc4csc5ccccc45)C(=O)N[C@@H](CCC(N)=O)C(N)=O)(C3)NC(=O)[C@H](CC(N)=O)NC(=O)[C@H](Cc3ccccc3)NC(=O)[C@H](C)NC(=O)[C@H](C)NC(=O)[C@H](CC(=O)O)NC(=O)[C@H](CC(=O)O)NC1=O)NC(=O)[C@H](CC(C)(C)C)NC(=O)[C@H](CC(=O)O)NC2=O (stereo partly drawn) [I-768, Ac-PL3-Asp-Npg-B5-Asp-Asp-Ala-Ala-Phe-Asn-PyrS3-3Thi-BztA-Gln-NH2] | IC50 ([1]; read-out: FP EC50): 0.009 µM; IC50 ([2]; read-out: NanoBRET Abs IC50): 31.4 µM
9 | 2.307 | 0.005 | – | CC(=O)N1CCC[C@]12CC=CCCCC1(CCCC=CCCCOC(=O)N3CC[C@@](C(=O)N[C@@H](Cc4ccsc4)C(=O)N[C@@H](Cc4csc5ccccc45)C(=O)N[C@@H](Cc4c[nH]cn4)C(N)=O)(C3)NC(=O)[C@H](CC(N)=O)NC(=O)[C@H](Cc3ccccc3)NC(=O)[C@H](C)NC(=O)[C@H](C)NC(=O)[C@H](CN(CC(=O)O)CC(F)(F)F)NC(=O)[C@H](CC(=O)O)NC1=O)NC(=O)[C@H](CC(C)(C)C)NC(=O)[C@H](CC(=O)O)NC2=O (stereo partly drawn) [I-769, Ac-PL3-Asp-Npg-B5-Asp-TfeGA-Ala-Ala-Phe-Asn-PyrS2-3Thi-BztA-His-NH2] | IC50 [2, 4]: 13 µM; IC50 ([2]; read-out: NanoBRET Abs IC50): 13 µM
10 | 1.809 | 0.24 | 0.24 | CC(=O)N1CCC[C@]12CC=CCCCC1(CCCC=CCCCOC(=O)N3CC[C@@](C(=O)N[C@@H](Cc4ccsc4)C(=O)N[C@@H](Cc4csc5ccccc45)C(=O)N[C@@H](CCC(N)=O)C(N)=O)(C3)NC(=O)[C@H](CO)NC(=O)[C@H](Cc3ccccc3)NC(=O)[C@H](C)NC(=O)[C@H](C)NC(=O)[C@H](Cc3cccc(C(=O)O)c3)NC(=O)[C@H](CC(=O)O)NC1=O)NC(=O)[C@H](CC(C)(C)C)NC(=O)[C@H](CC(=O)O)NC2=O (stereo partly drawn) [I-979, Ac-PL3-Asp-Npg-B5-Asp-3COOHF-Ala-Ala-Phe-Ser-PyrS2-3Thi-BztA-Gln-NH2] | –
11 | 2.044 | 0.52 | 0.52 | CC(=O)N1CCC[C@]12CC=CCCCC1(CCCC=CCCCOC(=O)N3CC[C@@](C(=O)N[C@@H](Cc4ccccc4Cl)C(=O)N[C@@H](Cc4csc5ccccc45)C(=O)N[C@@H](CO)C(N)=O)(C3)NC(=O)[C@H](CC(C)C)NC(=O)[C@H](Cc3ccccc3)NC(=O)[C@H](C)NC(=O)[C@H](C)NC(=O)[C@H](CC(=O)O)NC(=O)[C@H](CC(=O)O)NC1=O)NC(=O)[C@H](CC(C)(C)C)NC(=O)[C@H](CC(=O)O)NC2=O (stereo partly drawn) [I-1065, Ac-PL3-Asp-Npg-B5-Asp-Asp-Ala-Ala-Phe-Leu-PyrS2-2C1F-BztA-Ser-NH2] | –
